Where two headings read alike, the source gives them in different places.
Key:
Assay type in all cases: cell-based
viable cells in culture = assay: Cell viability assay at 10 μM (CellTiter-Glo, Table VII); settings: compound 10 μM, 72 h;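 further: graded A 0-20%; B 21-40%; C 41-60%; D over 60% viable cells relative to DMSO control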
Outline: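 Cells were seeded at 1000 cells/well in 96-well plates in 100 μl culture medium and incubated for 72 h with 10 μM compound or a DMSO control. ATP content, which reflects metabolically active and therefore viable cells, was then determined by CellTiter-Glo luminescence (Promega) per the manufacturer's instructions and expressed relative to the DMSO control.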

U118 = assay: Apoptosis assay (Cellomics, nucleus condensation); settings: Table III, read-out: Apoptosis induction in U118
Outline: (§1)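 Apoptosis scored by automated microscopy of Hoechst-stained live nuclei, 24 and 48 h after treatment with 0.39–12.5 μM compound or DMSO.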

SF126 = assay: Apoptosis assay (Cellomics, nucleus condensation); settings: Homo sapiens, SF-126, Table III, read-out: Apoptosis induction in SF126
Outline: as §1

U138 = assay: Apoptosis assay (Cellomics, nucleus condensation); settings: Table III, read-out: Apoptosis induction in U138
Outline: as §1

C8161 = assay: Apoptosis assay (Cellomics, nucleus condensation); settings: Homo sapiens, Table III, read-out: Apoptosis induction in C8161
Outline: as §1

Hs578T = assay: Apoptosis assay (Cellomics, nucleus condensation); settings: Homo sapiens, Hs-578T, Table III, read-out: Apoptosis induction in Hs578T
Outline: as §1

SF763 = assay: Apoptosis assay (Cellomics, nucleus condensation); settings: Table III, read-out: Apoptosis induction in SF763
Outline: as §1

[1] = Homo sapiens, HCT-116, HCT116 def, read-out: percentage (%) of viable cells HCT 116def
[2] = Homo sapiens, HCT-116, HCT116 wt, read-out: percentage (%) of viable cells HCT 116wt
[3] = Homo sapiens, HT-29, HT29, read-out: percentage (%) of viable cells HT29
[4] = Homo sapiens, NCI-H358, H358, read-out: percentage (%) of viable cells H358
[5] = Homo sapiens, NCI-H1650, H1650, read-out: percentage (%) of viable cells H1650
[6] = Homo sapiens, NCI-H1666, H1666, read-out: percentage (%) of viable cells H1666
[7] = Homo sapiens, NCI-H1975, H1975, read-out: percentage (%) of viable cells H1975
[8] = Homo sapiens, NCI-H1993, H1993, read-out: percentage (%) of viable cells H1993
[9] = Homo sapiens, A549, read-out: percentage (%) of viable cells A549
[10] = Homo sapiens, HCC827, read-out: percentage (%) of viable cells HCC827
[11] = Homo sapiens, SW480, read-out: percentage (%) of viable cells SW480
[12] = RKO, read-out: percentage (%) of viable cells RKO

| IC50 (U118) | IC50 (SF126) | IC50 (U138) | IC50 (C8161) | IC50 (Hs578T) | IC50 (SF763) | SMILES | viability at 10 µM (viable cells in culture; [1]) | viability at 10 µM (viable cells in culture; [2]) | viability at 10 µM (viable cells in culture; [3]) | viability at 10 µM (viable cells in culture; [4]) | viability at 10 µM (viable cells in culture; [5]) | viability at 10 µM (viable cells in culture; [6]) | viability at 10 µM (viable cells in culture; [7]) | viability at 10 µM (viable cells in culture; [8]) | viability at 10 µM (viable cells in culture; [9]) | viability at 10 µM (viable cells in culture; [10]) | viability at 10 µM (viable cells in culture; [11]) | viability at 10 µM (viable cells in culture; [12]) |
| --- | --- | --- | --- | --- | --- | --- | --- | --- | --- | --- | --- | --- | --- | --- | --- | --- | --- | --- |
| ≤ 12.5 µM | ≤ 12.5 µM | ≤ 12.5 µM | ≤ 12.5 µM | ≤ 12.5 µM | ≤ 12.5 µM | COc1cc2c(Oc3ccc(NS(=O)(=O)c4c(Cl)cccc4Cl)cc3F)ccnc2cc1OCCCN1CCN(C)CC1 [Example 32, 2,6-Dichloro-N-(3-fluoro-4-{6-methoxy-7-[3-(4-methyl-piperazin-1-yl)-propoxy]-quinolin-4-yloxy}-phenyl)-benzenesulfonamide] | 21 to 40% | 0 to 20% | 0 to 20% | 0 to 20% | 21 to 40% | 41 to 60% | 21 to 40% | 0 to 20% | 41 to 60% | 41 to 60% | 21 to 40% | 21 to 40% |
| ≤ 12.5 µM | ≤ 12.5 µM | ≤ 12.5 µM | ≤ 12.5 µM | ≤ 12.5 µM | 12.5 to 50 µM | COc1cc2c(Oc3ccc(NS(=O)(=O)c4ccc(F)c(Cl)c4)cc3F)ccnc2cc1OCCCN1CCCC(C)C1 (centres unmarked) [Example 57, 3-Chloro-4-fluoro-N-(3-fluoro-4-{6-methoxy-7-[3-(3-methyl-piperidin-1-yl)-propoxy]-quinolin-4-yloxy}-phenyl)-benzenesulfonamide] | 21 to 40% | > 60% | 0 to 20% | 21 to 40% | 41 to 60% | 41 to 60% | 0 to 20% | 21 to 40% | > 60% | > 60% | 0 to 20% | 0 to 20% |
| ≤ 12.5 µM | ≤ 12.5 µM | 12.5 to 50 µM | ≤ 12.5 µM | ≤ 12.5 µM | ≤ 12.5 µM | COc1cc2c(Oc3ccc(NS(=O)(=O)c4ccccc4[N+](=O)[O-])cc3F)ccnc2cc1OCCCN1CCN(C)CC1 [Example 21, N-(3-Fluoro-4-{6-methoxy-7-[3-(4-methyl-piperazin-1-yl)-propoxy]-quinolin-4-yloxy}-phenyl)-2-nitro-benzenesulfonamide] | 41 to 60% | > 60% | 21 to 40% | 21 to 40% | 41 to 60% | 41 to 60% | 41 to 60% | 21 to 40% | > 60% | > 60% | 21 to 40% | 41 to 60% |
| ≤ 12.5 µM | ≤ 12.5 µM | ≤ 12.5 µM | ≤ 12.5 µM | ≤ 12.5 µM | ≤ 12.5 µM | COc1cc2c(Oc3ccc(NS(=O)(=O)c4c(F)cccc4F)cc3F)ccnc2cc1OCCN1CCOCC1 [Example 82, 2,6-Difluoro-N-{3-fluoro-4-[6-methoxy-7-(2-morpholin-4-yl-ethoxy)-quinolin-4-yloxy]-phenyl}-benzenesulfonamide] | 21 to 40% | 0 to 20% | 0 to 20% | 21 to 40% | 21 to 40% | 41 to 60% | 21 to 40% | 0 to 20% | > 60% | 21 to 40% | 21 to 40% | 41 to 60% |
| ≤ 12.5 µM | ≤ 12.5 µM | 12.5 to 50 µM | ≤ 12.5 µM | ≤ 12.5 µM | ≤ 12.5 µM | COc1cc2c(Oc3ccc(NS(=O)(=O)c4cc(Cl)cc(Cl)c4OC)cc3F)ccnc2cc1OCCCN1CCN(C)CC1 [Example 35, 3,5-Dichloro-N-(3-fluoro-4-{6-methoxy-7-[3-(4-methyl-piperazin-1-yl)-propoxy]-quinolin-4-yloxy}-phenyl)-2-methoxy-benzenesulfonamide] | 21 to 40% | 0 to 20% | 0 to 20% | 0 to 20% | 21 to 40% | 21 to 40% | 0 to 20% | 21 to 40% | > 60% | 41 to 60% | 0 to 20% | 41 to 60% |
| ≤ 12.5 µM | ≤ 12.5 µM | ≤ 12.5 µM | ≤ 12.5 µM | ≤ 12.5 µM | ≤ 12.5 µM | COc1cc2c(Oc3ccc(NS(=O)(=O)c4cccc(C)c4)cc3F)ccnc2cc1OCCCN1CCCC(C)C1 (centres unmarked) [Example 70, N-(3-Fluoro-4-{6-methoxy-7-[3-(3-methyl-piperidin-1-yl)-propoxy]-quinolin-4-yloxy}-phenyl)-3-methyl-benzenesulfonamide] | 21 to 40% | 41 to 60% | 21 to 40% | 21 to 40% | 41 to 60% | 21 to 40% | 0 to 20% | 0 to 20% | 21 to 40% | 21 to 40% | 21 to 40% | 0 to 20% |
|  | ≤ 12.5 µM | 12.5 to 50 µM | ≤ 12.5 µM | ≤ 12.5 µM | ≤ 12.5 µM | COc1cc2c(Oc3ccc(NS(=O)(=O)c4ccccc4Cl)cc3F)ccnc2cc1OCCCN1CCN(C)CC1 [Example 29, 2-Chloro-N-(3-fluoro-4-{6-methoxy-7-[3-(4-methyl-piperazin-1-yl)-propoxy]-quinolin-4-yloxy}-phenyl)-benzenesulfonamide] | 0 to 20% | 0 to 20% | 0 to 20% | 21 to 40% | 21 to 40% | 41 to 60% | 0 to 20% | 0 to 20% | 41 to 60% | 21 to 40% | 0 to 20% | 0 to 20% |
| ≤ 12.5 µM | ≤ 12.5 µM | ≤ 12.5 µM | ≤ 12.5 µM | ≤ 12.5 µM | ≤ 12.5 µM | COc1cc2c(Oc3ccc(NS(=O)(=O)c4ccccc4F)cc3F)ccnc2cc1OCCN1CCOCC1 [Example 81, 2-Fluoro-N-{3-fluoro-4-[6-methoxy-7-(2-morpholin-4-yl-ethoxy)-quinolin-4-yloxy]-phenyl}-benzenesulfonamide] | 21 to 40% | 21 to 40% | 21 to 40% | 0 to 20% | 21 to 40% | 21 to 40% | 0 to 20% | 21 to 40% | 41 to 60% | 0 to 20% | 0 to 20% | 41 to 60% |
| ≤ 12.5 µM | ≤ 12.5 µM | ≤ 12.5 µM | ≤ 12.5 µM | ≤ 12.5 µM | ≤ 12.5 µM | COc1cc2c(Oc3ccc(NS(=O)(=O)c4ccccc4C(F)(F)F)cc3F)ccnc2cc1OCC(=O)N(C)C [Example 93, 2-{4-[2-Fluoro-4-(2-trifluoromethyl-benzenesulfonylamino)-phenoxy]-6-methoxy-quinolin-7-yloxy}-N,N-dimethyl-acetamide] | 21 to 40% | > 60% | 0 to 20% | 0 to 20% | 21 to 40% | 21 to 40% | 0 to 20% | 21 to 40% | > 60% | 21 to 40% | 0 to 20% | 0 to 20% |
| ≤ 12.5 µM | ≤ 12.5 µM | ≤ 12.5 µM | ≤ 12.5 µM | ≤ 12.5 µM | ≤ 12.5 µM | COc1cc2c(Oc3ccc(NS(=O)(=O)c4ccccc4OC(F)(F)F)cc3F)ccnc2cc1OCCCN1CCN(C)CC1 [Example 25, N-(3-Fluoro-4-{6-methoxy-7-[3-(4-methyl-piperazin-1-yl)-propoxy]-quinolin-4-yloxy}-phenyl)-2-trifluoromethoxy-benzenesulfonamide] |  |  |  |  |  |  |  |  |  |  |  |  |
